Assay results published in US20060069132A1, “Azolecarboxamide herbicides” (priority 2004, published 2006).

Tests used:
yellow nutsedge = experiment: Test C pre-/postemergence herbicide test; format: in vivo, Cyperus esculentus
Method in brief: (§1)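 Visual ratings on a 0–100 scale (100 = complete control) made versus untreated controls after 12 to 14 greenhouse days. Test chemicals, formulated in surfactant-containing non-phytotoxic solvent, applied preemergence to planted seeds or postemergence to 1- to 4-leaf plants (2 to 18 cm).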

redroot pigweed = experiment: Test A pre-/postemergence herbicide test; format: in vivo, Amaranthus retroflexus
Method in brief: (§2)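 Visual injury scores on a 0–100 scale (100 = complete control) taken about ten days post-treatment in greenhouse against untreated controls; dash means no result. Treatments: preemergence soil spray and postemergence spray to runoff on one- to two-leaf plants 2 to 10 cm tall, surfactant-containing formulation.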

giant foxtail = experiment: Test A pre-/postemergence herbicide test; format: in vivo, Setaria faberi
Method in brief: as §2

common ragweed = experiment: Test C pre-/postemergence herbicide test; format: in vivo, Ambrosia elatior; design: key to Plant response rating, Ragweed: 0 = no effect, 100 = complete control
Method in brief: as §1

lambsquarters = experiment: Test C pre-/postemergence herbicide test; format: in vivo, Chenopodium album
Method in brief: as §1

Surinam grass = experiment: Test C pre-/postemergence herbicide test; format: in vivo, Urochloa decumbens
Method in brief: as §1

barnyardgrass = experiment: Test B pre-/postemergence herbicide test; format: in vivo, Echinochloa crus-galli
Method in brief: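 Species tested were Echinochloa crus-galli, Ipomoea coccinea, Xanthium strumarium and Oryza sativa, treated both before emergence and at the 1- to 4-leaf stage; rice and barnyardgrass were also tested under flooding at 2 leaves. Greenhouse incubation lasted 13–15 days before visual 0–100 scoring.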

large crabgrass = experiment: Test C pre-/postemergence herbicide test; format: in vivo, Digitaria sanguinalis
Method in brief: as §1

ducksalad = experiment: Test B flooded paddy test; format: in vivo, Heteranthera limosa; conditions: 1000 g ai/ha, scale 0 to 100 (0 no effect, 100 complete control)
Method in brief: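 Plants grow to 1- to 4-leaf stage (2–18 cm) for postemergence spraying, or to 2-leaf stage for the paddy test. Formulated compound is applied. Greenhouse holding lasts 13–15 days. Response is scored visually relative to controls, 0 no effect to 100 complete control; a dash means no result.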

[1] = 31 g ai/ha, preemergence, scale 0 to 100
[2] = 125 g ai/ha, scale 0 (no effect) to 100 (complete control), visual, 12 to 14 days, preemergence
[3] = 250 g ai/ha, scale 0 to 100 (0 no effect, 100 complete control), visual, 12 to 14 days, preemergence
[4] = Postemergence, 500 g ai/ha, 0 to 100 scale, 0 no effect, 100 complete control
[5] = Postemergence, 2000 g ai/ha, 0 to 100 scale, 0 no effect, 100 complete control
[6] = Preemergence, 500 g ai/ha, visual rating, 0 to 100 scale (0 no effect, 100 complete control)
[7] = Preemergence, 2000 g ai/ha, 0 to 100 scale, 0 no effect, 100 complete control
[8] = Postemergence, 125 g ai/ha, scale 0 (no effect) to 100 (complete control)
[9] = Postemergence, 500 g ai/ha, visual rating after 13 to 15 days, scale 0 (no effect) to 100 (complete control)
[10] = Preemergence, 500 g ai/ha, scale 0 to 100
[11] = Postemergence, 500 g ai/ha, scale 0 to 100
[12] = Postemergence, 250 g ai/ha, scale 0 to 100, 0 no effect, 100 complete control
[13] = postemergence, 125 g ai/ha, scale 0 to 100
[14] = postemergence, 62 g ai/ha, scale 0 to 100
[15] = 62 g ai/ha, preemergence, scale 0 to 100
[16] = 500 g ai/ha, scale 0 to 100 (0 no effect, 100 complete control), visual, 12 to 14 days, preemergence
[17] = Preemergence, 2000 g ai/ha, visual rating, 0 to 100 scale (0 no effect, 100 complete control)
[18] = preemergence, 500 g ai/ha, visual injury, 0 to 100 scale (0 no effect, 100 complete control)
[19] = 250 g ai/ha, scale 0-100, preemergence

SMILES: CCCCn1nc(C(C)(C)C)cc1C(=O)Nc1cccc(C(=O)NCC)c1 [Compound 41]
- Plant response rating, Nutsedge, Yellow (yellow nutsedge; [1]): 0
- Plant response rating (0 = no effect, 100 = complete control), Nutsedge, Yellow (yellow nutsedge; 62 g ai/ha, preemergence): 0
- Plant response rating, Nutsedge, Yellow (yellow nutsedge; [2]): 0
- Plant response rating, Nutsedge, Yellow (yellow nutsedge; [3]): 0
- Plant response rating, Pigweed (redroot pigweed; [4]): 40
- Plant response rating, Pigweed (redroot pigweed; [5]): 60
- Pigweed plant response rating (redroot pigweed; [6]): 65
- Pigweed plant response rating (redroot pigweed; [7]): 85
- Plant response rating, Foxtail, Giant (giant foxtail; [4]): 20
- Plant response rating, Foxtail, Giant (giant foxtail; [5]): 35
- Foxtail, Giant plant response rating (giant foxtail; [6]): 30
- Foxtail, Giant plant response rating (giant foxtail; [7]): 70
- Plant response rating, Ragweed (common ragweed; [1]): 0
- Plant response rating (0 = no effect, 100 = complete control), Ragweed (common ragweed; 62 g ai/ha, preemergence): 0
- Plant response rating, Ragweed (common ragweed; [2]): 0
- Plant response rating, Ragweed (common ragweed; [3]): 10
- Plant response rating, Lambsquarters (lambsquarters; [1]): 0
- Plant response rating (0 = no effect, 100 = complete control), Lambsquarters (lambsquarters; 62 g ai/ha, preemergence): 50
- Plant response rating, Lambsquarters (lambsquarters; [2]): 90
- Plant response rating, Lambsquarters (lambsquarters; [3]): 100
- Plant response rating, Surinam Grass (Surinam grass; [1]): 10
- Plant response rating (0 = no effect, 100 = complete control), Surinam Grass (Surinam grass; 62 g ai/ha, preemergence): 20
- Plant response rating, Surinam Grass (Surinam grass; [2]): 20
- Plant response rating, Surinam Grass (Surinam grass; [3]): 20
- Barnyardgrass plant response rating (barnyardgrass; [8]): 10
- Plant response rating, Barnyardgrass (barnyardgrass; [9]): 20
- Barnyardgrass plant response rating (barnyardgrass; [10]): 80
- Plant response rating, Crabgrass, Large (large crabgrass; [1]): 0
- Plant response rating (0 = no effect, 100 = complete control), Crabgrass, Large (large crabgrass; 62 g ai/ha, preemergence): 90
- Plant response rating, Crabgrass, Large (large crabgrass; [2]): 100
- Plant response rating, Crabgrass, Large (large crabgrass; [3]): 100
- Ducksalad plant response rating (ducksalad; visual rating, 13 to 15 days): 60

SMILES: C#CCOC(=O)c1cccc(NC(=O)c2cc(C(C)(C)C)nn2CC)c1 [Compound 84]
- Nutsedge, Yellow plant response rating (yellow nutsedge; [11]): 0
- Plant response rating, Nutsedge, Yellow (yellow nutsedge; [12]): 0
- Plant response rating, Nutsedge, Yellow (yellow nutsedge; [13]): 0
- Plant response rating, Nutsedge, Yellow (yellow nutsedge; [14]): 0
- Pigweed plant response rating (redroot pigweed; [4]): 50
- Plant response rating, Pigweed (redroot pigweed; [5]): 45
- Pigweed plant response rating (redroot pigweed; [6]): 0
- Pigweed plant response rating (redroot pigweed; [7]): 0
- Foxtail, Giant plant response rating (giant foxtail; [4]): 15
- Plant response rating, Foxtail, Giant (giant foxtail; [5]): 10
- Foxtail, Giant plant response rating (giant foxtail; [6]): 0
- Foxtail, Giant plant response rating (giant foxtail; [7]): 0
- Ragweed plant response rating (common ragweed; [11]): 0
- Plant response rating, Ragweed (common ragweed; [12]): 0
- Plant response rating, Ragweed (common ragweed; [13]): 0
- Plant response rating, Ragweed (common ragweed; [14]): 0
- Lambsquarters plant response rating (lambsquarters; [11]): 50
- Plant response rating, Lambsquarters (lambsquarters; [12]): 0
- Plant response rating, Lambsquarters (lambsquarters; [13]): 0
- Plant response rating, Lambsquarters (lambsquarters; [14]): 0
- Surinam Grass plant response rating (Surinam grass; [11]): 10
- Plant response rating, Surinam Grass (Surinam grass; [12]): 0
- Plant response rating, Surinam Grass (Surinam grass; [13]): 0
- Plant response rating, Surinam Grass (Surinam grass; [14]): 0
- Plant response rating, Barnyardgrass (barnyardgrass; [9]): 40
- Barnyardgrass plant response rating (barnyardgrass; [10]): 0
- Barnyardgrass plant response rating (barnyardgrass; postemergence, 125 g ai/ha, visual rating, scale 0 (no effect) to 100 (complete control)): 20
- Plant response rating, Barnyardgrass (barnyardgrass; preemergence, 125 g ai/ha, 0 to 100 scale, 0 is no effect, 100 is complete control): 0
- Crabgrass, Large plant response rating (large crabgrass; [11]): 50
- Plant response rating, Crabgrass, Large (large crabgrass; [12]): 0
- Plant response rating, Crabgrass, Large (large crabgrass; [13]): 0
- Plant response rating, Crabgrass, Large (large crabgrass; [14]): 0
- Ducksalad plant response rating (ducksalad; visual rating, 13 to 15 days): 20

SMILES: CCc1nn(C(C)(C)C)nc1C(=O)Nc1cccc(C(=O)NC2CC2)c1 [Compound 417]
- Plant response rating, Nutsedge, Yellow (yellow nutsedge; [15]): 0
- Plant response rating (0 = no effect, 100 = complete control), Nutsedge, Yellow (yellow nutsedge; 125 g ai/ha, preemergence): 0
- Plant response rating, Nutsedge, Yellow (yellow nutsedge; [16]): 0
- Pigweed plant response rating (redroot pigweed; [4]): 100
- Plant response rating, Pigweed (redroot pigweed; [5]): 100
- Pigweed plant response rating (redroot pigweed; [17]): 100
- Pigweed plant response rating (redroot pigweed; [18]): 95
- Foxtail, Giant plant response rating (giant foxtail; [4]): 75
- Plant response rating, Foxtail, Giant (giant foxtail; [5]): 85
- Foxtail, Giant plant response rating (giant foxtail; [17]): 100
- Foxtail, Giant plant response rating (giant foxtail; [18]): 90
- Plant response rating, Ragweed (common ragweed; [15]): 0
- Plant response rating (0 = no effect, 100 = complete control), Ragweed (common ragweed; 125 g ai/ha, preemergence): 20
- Plant response rating, Ragweed (common ragweed; [16]): 90
- Plant response rating, Lambsquarters (lambsquarters; [15]): 95
- Plant response rating (0 = no effect, 100 = complete control), Lambsquarters (lambsquarters; 125 g ai/ha, preemergence): 100
- Plant response rating, Lambsquarters (lambsquarters; [19]): 100
- Plant response rating, Lambsquarters (lambsquarters; [16]): 100
- Plant response rating, Surinam Grass (Surinam grass; [15]): 0
- Plant response rating (0 = no effect, 100 = complete control), Surinam Grass (Surinam grass; 125 g ai/ha, preemergence): 75
- Plant response rating, Surinam Grass (Surinam grass; [16]): 95
- Plant response rating (0 to 100 scale), Barnyardgrass (barnyardgrass; 125 g ai/ha, 0 is no effect, 100 is complete control, preemergence): 80
- Barnyardgrass plant response rating (barnyardgrass; [8]): 10
- Barnyardgrass plant response rating (barnyardgrass; Postemergence, 500 g ai/ha, scale 0 (no effect) to 100 (complete control)): 20
- Plant response rating, Crabgrass, Large (large crabgrass; [15]): 100
- Plant response rating (0 = no effect, 100 = complete control), Crabgrass, Large (large crabgrass; 125 g ai/ha, preemergence): 100
- Plant response rating, Crabgrass, Large (large crabgrass; [19]): 100
- Plant response rating, Crabgrass, Large (large crabgrass; [16]): 100
- Ducksalad plant response rating (ducksalad): 80
